# Measured values reported in PubChem BioAssay (NCI).
#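 Five concentrations, 48 hours, 96-well plates. GI50 marks 50% less growth. TGI denotes the concentration required for complete inhibition of growth.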
# Key:
# Assay in all cases: inhibition of tumour cell growth, NCI panel, 48 h
# NCI/ADR-RES ovarian = system: NCI/ADR-RES ovarian
# SK-OV-3 ovarian = system: SK-OV-3 ovarian
# OVCAR-4 ovarian = system: OVCAR-4 ovarian
# NCI-H23 lung = system: NCI-H23 lung
# SK-MEL-28 melanoma = system: SK-MEL-28 melanoma
# HCC-2998 colon = system: HCC-2998 colon
# COLO 205 colon = system: COLO 205 colon
# OVCAR-5 ovarian = system: OVCAR-5 ovarian
# EKVX NSCLC = system: EKVX NSCLC
# CCRF-CEM leukemia = system: CCRF-CEM leukemia
SMILES,GI50 (NCI/ADR-RES ovarian) [µM],TGI (NCI/ADR-RES ovarian) [µM],GI50 (SK-OV-3 ovarian) [µM],TGI (SK-OV-3 ovarian) [µM],GI50 (OVCAR-4 ovarian) [µM],TGI (OVCAR-4 ovarian) [µM],GI50 (NCI-H23 lung) [µM],TGI (NCI-H23 lung) [µM],GI50 (SK-MEL-28 melanoma) [µM],TGI (SK-MEL-28 melanoma) [µM],GI50 (HCC-2998 colon) [µM],TGI (HCC-2998 colon) [µM],GI50 (COLO 205 colon) [µM],TGI (COLO 205 colon) [µM],GI50 (OVCAR-5 ovarian) [µM],TGI (OVCAR-5 ovarian) [µM],TGI (EKVX NSCLC) [µM],TGI (CCRF-CEM leukemia) [µM],GI50 (EKVX NSCLC) [µM],GI50 (CCRF-CEM leukemia) [µM]
Nc1ccc(C2=CC(c3ccc(Cl)cc3)N3C=CSC3=N2)cc1 (stereo unspecified),7.89,> 100,5.07,25.5,13,> 100,17.8,46.8,4.86,16.6,1.83,3.61,8.59,20.6,12.2,34.7,,,,
O=[N+]([O-])C=C(c1ccc(Cl)cc1)c1ccc(Cl)cc1,,,,,,27.6,,25.6,,31,,34.4,,12.2,,27.7,32.5,67.7,,
CC(=O)[O-].Cn1ccnc1CNCc1nccn1C.[Cu+2].[O-][Cl+3]([O-])([O-])[O-],,,> 100,> 100,3.1,> 100,> 100,> 100,> 100,> 100,> 100,> 100,> 100,> 100,,,> 100,> 100,> 100,> 100
CN(C)c1ccc2oc(=O)c3ccccc3c2c1,,,,,,> 100,,64.2,,> 100,,> 100,,> 100,,> 100,> 100,> 100,,
CCOC(=O)C(Cc1c[nH]c2cc([N+](=O)[O-])ccc12)NS(=O)(=O)c1ccc2ccccc2c1 (stereo unspecified),,,,68.6,,28,,48.4,,32.1,,49.4,,32.1,,,78.1,49.1,,
c1ccc(C2OC3(CCC[C@H]4C[C@H]43)O[C@H]2c2ccccc2)cc1 (stereo partly specified),,,,> 100,,> 100,,> 100,,,,> 100,,91.7,,> 100,> 100,49.9,,
CN(c1ccc(C(=O)c2ccc(N(C)S(C)(=O)=O)cc2)cc1)S(C)(=O)=O,,,,> 100,,> 100,,> 100,,> 100,,,,> 100,,> 100,> 100,> 100,,
CCCCCCCCCCCCCC[N+](C)(C)CCCCCCCCCCCCCC,7.42,63.4,3.6,19.7,,,2.12,6.13,,,2.26,5.28,,,2.92,9.91,,,,
CCc1cccc(C)c1NC(=O)C(=O)CC(=O)c1ccc(Cl)s1,,,,> 100,,> 100,,> 100,,> 100,,> 100,,,,,> 100,> 100,,
O=C(O)c1ccc(C2=Cc3cc(Cl)ccc3OC2)cc1,,,,> 100,,,,> 100,,> 100,,> 100,,> 100,,> 100,> 100,> 100,,
CC1/C(=N\O)CC(c2ccccc2)N(C)C1c1ccccc1 (stereo unspecified),,,,> 100,,> 100,,> 100,,> 100,,> 100,,> 100,,> 100,> 100,> 100,,
